Calls of active or inactive are those of the source.
What was measured:
Paired box protein Pax-8 = Paired box protein Pax-8 (Homo sapiens, UniProt Q06710); experiment: inhibitors of PAX8-driven TPO luciferase reporter, dose response, RMG-I cells, cherry-pick (AID 687027); format: functional, cell-based;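 further: luciferase reporter driven by Pax8 target thyroperoxidase promoter measured by SteadyGlo luminescence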
[1] = IOSE-T80 ovarian epithelial cell cytotoxicity, dose response, cytotoxicity control for PAX8 inhibitor project, plate reader, dry powder samples (AID 743045); format: functional, cell-based
[2] = A2780 ovarian cancer cell cytotoxicity, dose response, cytotoxicity control, plate reader, dry powder samples (AID 743046); format: functional, cell-based
[3] = NIH:OVCAR-3 ovarian cancer cell cytotoxicity, dose response, PAX8 inhibitor project, plate reader, dry powder samples (AID 743044); format: functional, cell-based
[4] = IGROV1 ovarian cancer cell cytotoxicity, dose response, PAX8 inhibitor project, plate reader, dry powder samples (AID 743043); format: functional, cell-based; conditions: IGROV-1
[5] = cytotoxicity in OVCAR8 ovarian cancer cells, dose response, PAX8 project, cell-based, plate reader, dry powder samples (AID 743197); format: functional; conditions: OVCAR-8
[6] = target: 1-phosphatidylinositol 4,5-bisphosphate phosphodiesterase gamma-1 (Homo sapiens, UniProt P19174); experiment: Counterscreen for inhibitors of phospholipase C isozymes (PLC-B3): Fluorescence-based biochemical high throughput dose response assay to identify inhibitors of phospholipase C isozymes (PLC-gamma1).
[7] = target: 1-phosphatidylinositol 4,5-bisphosphate phosphodiesterase beta-3 (Homo sapiens, UniProt Q01970); experiment: Fluorescence-based biochemical high throughput dose response assay to identify inhibitors of phospholipase C isozymes (PLC-B3).
[8] = T. cruzi growth inhibition in host cells, dose response, cell-based, plate reader, dry powder, set 2 (AID 652275); format: functional
[9] = growth inhibition of intracellular T. cruzi, dose response, cell-based, plate reader, dry powder samples (AID 651845); format: functional
[10] = T. cruzi intracellular amastigote growth inhibition, dose response, imaging, CA-I/72 strain, bovine embryo skeletal muscle, dry powder (AID 651885); format: functional, cell-based
[11] = PAX2 cell-based inhibition, dose response, selectivity assay for PAX8 inhibitor project, plate reader, dry powder samples (AID 743048); format: functional;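 further: HEK293 cells carrying a WT1 promoter luciferase reporter driven by expressed Pax2; potency is for inhibition of Pax2 driven reporter signal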
[12] = cytotoxicity in COV362 ovarian cancer cells, dose response, cytotoxicity control for PAX8 inhibitor project, cell-based, plate reader, dry powder, SA12 (AID 743144); format: functional
[13] = PAX5 activity inhibitors, dose response, selectivity assay for PAX8 inhibitor project, cell-based, plate reader, dry powder samples (AID 743047); format: functional;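 further: HEK293 cells carrying a Pax5 driven CD19 promoter luciferase reporter; potency of inhibitors that lower reporter luminescence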
[14] = cytotoxicity in OVCAR4 cells, dose response, cytotoxicity control for PAX8 inhibitor project, cell-based, plate reader, dry powder, SA11 (AID 743150); format: functional; conditions: OVCAR-4
[15] = cytotoxicity in COV434 cells, dose response, cytotoxicity control for PAX8 inhibitor project, cell-based, plate reader, dry powder, SA7 (AID 743145); format: functional
[16] = cytotoxicity in OV-90 ovarian cancer cells, dose response, PAX8 inhibitor project, cell-based, plate reader, dry powder, SA8 (AID 743149); format: functional
[17] = cytotoxicity dependent on PAX8, dose response, cell-based, plate reader, dry powder (AID 743049); format: functional
[18] = Late stage counterscreen for inhibitors of Trypanosoma brucei methionyl tRNA synthetase (MetRS): Luminescence-based cell-based high throughput dose response assay to identify compounds that are cytotoxic to Jurkat human T lymphocyte cells.; format: functional
[19] = Late stage assay provider results from the probe development effort to identify selective inhibitors of heat shock protein 90 (HSP90): Absorbance-based cell proliferation assay in SKBR3 cells.; format: functional; conditions: SK-BR-3
[20] = Late stage assay provider results from the probe development effort to identify selective inhibitors of heat shock protein 90 (HSP90): Absorbance-based cell proliferation assay in MCF7 cells.; format: functional
[21] = Luminescence Cell-Based Dose Response HTS to Identify Activators of Luciferase Translation or Activity in H4 […] Cells. [Related pubchem assays: 1829 (Project Summary), 1814 (Primary HTS)]; format: functional
[22] = Artemis endonuclease inhibitor potency, dose response, biochemical, fluorescence intensity (AID 720701); format: functional;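 further: Artemis endonuclease enzyme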
[23] = Vero cell cytotoxicity, cytotoxicity control for M. tuberculosis inhibitor project, purified and synthesized samples, set 8 (AID 602431); format: functional; conditions: Mycobacterium tuberculosis
[24] = THP-1 cell cytotoxicity, cytotoxicity control, set 6 (AID 602433); format: functional; conditions: Mycobacterium tuberculosis
[25] = HeLa cell cytotoxicity, dose response, cytotoxicity control, 24 h, plate reader, dry powder (AID 686928); format: functional, cell-based
[26] = growth suppression of PTEN-null colon cells, dose response, cell-based, HCT116 PTEN knockout (AID 1047); format: functional;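 further: HCT116 colon tumor cells with PTEN knocked out; cells exposed to compound for 60 hours before readout; potency for loss of cell viability measured by luminescence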
[27] = growth suppression of beta-catenin-knockout colon cells, dose response, cell-based, HCT116, human colon tumor (AID 1045); format: functional;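 further: HCT116 colon tumor cells with beta catenin knocked out; cells exposed to compound for 60 hours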
[28] = cytotoxicity in HEK-293T cells, dose response, cytotoxicity control for BCR NF-kB inhibitor project, luminescence, B-cell screen hits (AID 489021); format: functional, cell-based;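 further: HEK-293T cells carrying an NF-kB luciferase reporter; cells exposed to compound for about 14 hours before viability readout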
[29] = target: COUP transcription factor 2 (Homo sapiens, UniProt P24468); experiment: Luminescence-based cell-based high throughput dose response assay to identify inhibitors of COUP-TFII (NR2F2).; format: functional;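 further: HEK293 cells transiently cotransfected with COUP-TFII expression vector and reporter; luciferase reporter luminescence driven by COUP-TFII from the pX2-168 reporter plasmid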
[30] = MITF Orthogonal Assay: SK-MEL-5 CTG Assay Measured in Cell-Based System Using Plate Reader - 2084-02_Inhibitor_Dose_DryPowder_Activity_Set7.; format: functional
[31] = MITF: Counter assay: A375 proliferation Measured in Cell-Based System Using Plate Reader - 2084-03_Inhibitor_Dose_DryPowder_Activity_Set8.; format: functional; conditions: A-375
[32] = TRPM1 promoter luciferase reporter signal decrease, dose response, MITF inhibitor project, cell-based, SK-MEL-5, dry powder, set 8 (AID 624430); format: functional
[33] = target: Endoplasmic reticulum aminopeptidase 1 (Homo sapiens, UniProt Q9NZ08); experiment: ERAP1 aminopeptidase inhibitors, dose response, biochemical, cherry-pick, set 2, plate reader (AID 743314)
[34] = target: T1, Calpain-2 catalytic subunit (Sus scrofa, UniProt P43367); experiment: pig calpain II inhibitor potency, dose response, biochemical, fluorogenic peptide substrate (AID 1420); format: functional
T1 sequence (P43367 whole entry): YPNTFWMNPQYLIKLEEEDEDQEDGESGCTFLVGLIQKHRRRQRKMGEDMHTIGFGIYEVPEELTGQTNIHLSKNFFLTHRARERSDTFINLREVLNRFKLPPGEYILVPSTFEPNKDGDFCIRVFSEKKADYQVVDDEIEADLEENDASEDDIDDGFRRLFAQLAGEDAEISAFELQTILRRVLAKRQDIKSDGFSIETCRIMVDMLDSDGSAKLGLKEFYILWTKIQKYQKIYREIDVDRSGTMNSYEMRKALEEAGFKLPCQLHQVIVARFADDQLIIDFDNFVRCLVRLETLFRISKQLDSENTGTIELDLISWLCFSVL

[35] = ADAM10 inhibitors, peptide cleavage, dose response, biochemical, QFRET (AID 743254);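 further: ADAM10 enzyme with the DM2 quenched FRET peptide as substrate; EDANS fluorescence gain as the protease cuts the substrate; inhibitor potency against ADAM10 proteolytic activity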
[36] = target: Disintegrin and metalloproteinase domain-containing protein 17 (Homo sapiens, UniProt P78536); experiment: ADAM17 protease inhibitors, dose response, counter-screen for ADAM10 exosite inhibitor project, biochemical, quenched FRET substrate (AID 743253)
[37] = Counterscreen for […] of the human trace amine associated receptor 1 (TAAR1): Fluorescence-based cell-based high throughput dose response assay to identify nonselective Ga16 agonists.; format: functional
[38] = target: T2, Trace amine-associated receptor 1 (Homo sapiens, UniProt Q96RJ0); experiment: Fluorescence-based cell-based high throughput dose response assay to identify antagonists of the human trace amine associated receptor 1 (TAAR1).; format: functional
T2 sequence (Q96RJ0 whole entry): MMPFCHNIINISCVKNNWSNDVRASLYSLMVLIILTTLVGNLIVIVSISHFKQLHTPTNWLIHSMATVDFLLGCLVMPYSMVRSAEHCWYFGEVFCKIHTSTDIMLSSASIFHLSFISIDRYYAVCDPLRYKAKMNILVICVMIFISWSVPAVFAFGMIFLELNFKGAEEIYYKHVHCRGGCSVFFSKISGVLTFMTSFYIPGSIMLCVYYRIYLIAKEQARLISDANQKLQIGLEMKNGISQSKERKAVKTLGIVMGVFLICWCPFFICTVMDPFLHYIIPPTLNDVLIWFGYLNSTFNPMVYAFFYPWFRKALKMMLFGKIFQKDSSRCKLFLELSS

[39] = Counterscreen for antagonists of the human trace amine associated receptor 1 (hTAAR1): Fluorescence-based cell-based high throughput dose response assay to identify nonselective Ga16 antagonists.; format: functional
[40] = target: T2, Trace amine-associated receptor 1; experiment: Counterscreen for antagonists of the human trace amine associated receptor 1 (hTAAR1): Fluorescence-based cell-based high throughput dose response assay to identify TAAR1 Agonists.; format: functional
[41] = miR-122 activators in hepatoma reporter cells, dose response, cell-based, Huh7 psiCHECK-miR122, Renilla luciferase, cherry-picked (AID 651956); format: functional;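 further: huh7 hepatoma cells stably carrying a psiCHECK-2 miR-122 sensor plasmid; renilla luciferase signal reporting endogenous miR-122 activity after 48 h compound exposure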
[42] = HEK293T cytotoxicity, dose response, cytotoxicity control for miR-122 modulator project, cell-based, inhibitor set, cherry-pick, set 2 (AID 720697); format: functional
[43] = HEK293T cytotoxicity, dose response, cytotoxicity control for miR-122 modulator project, cell-based, activator set, cherry-pick (AID 720690); format: functional;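 further: HEK293T human cells scored for general mammalian cytotoxicity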
[44] = target: T3, Heat shock factor protein 1 (Mus musculus, UniProt P38532); experiment: inhibition of MG132-induced HSE-luciferase signal, confirmation, cell-based, NIH3T3, luminescence, dose retest (AID 2382); format: functional;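 further: NIH3T3 fibroblasts with HSF1-driven luciferase reporter stressed by proteasome inhibitor MG132; luminescence from HSF1-driven luciferase expression after 8 hours of MG132 stress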
T3 sequence (P38532 whole entry): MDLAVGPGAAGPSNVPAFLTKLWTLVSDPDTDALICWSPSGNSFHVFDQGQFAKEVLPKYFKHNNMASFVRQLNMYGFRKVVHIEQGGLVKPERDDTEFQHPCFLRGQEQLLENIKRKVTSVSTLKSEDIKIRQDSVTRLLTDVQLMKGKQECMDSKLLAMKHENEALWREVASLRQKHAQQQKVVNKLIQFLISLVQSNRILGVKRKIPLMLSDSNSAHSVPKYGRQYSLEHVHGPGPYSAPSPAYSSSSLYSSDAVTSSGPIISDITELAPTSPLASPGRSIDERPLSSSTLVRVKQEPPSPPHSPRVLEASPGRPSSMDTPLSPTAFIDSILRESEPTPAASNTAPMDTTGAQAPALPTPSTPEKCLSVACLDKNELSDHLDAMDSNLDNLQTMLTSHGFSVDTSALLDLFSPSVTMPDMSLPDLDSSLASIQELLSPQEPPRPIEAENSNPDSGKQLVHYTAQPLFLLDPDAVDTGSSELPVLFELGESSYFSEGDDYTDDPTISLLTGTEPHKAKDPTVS

cells = conditions: HEK293

Chain of Paired box protein Pax-8 (Q06710 whole entry): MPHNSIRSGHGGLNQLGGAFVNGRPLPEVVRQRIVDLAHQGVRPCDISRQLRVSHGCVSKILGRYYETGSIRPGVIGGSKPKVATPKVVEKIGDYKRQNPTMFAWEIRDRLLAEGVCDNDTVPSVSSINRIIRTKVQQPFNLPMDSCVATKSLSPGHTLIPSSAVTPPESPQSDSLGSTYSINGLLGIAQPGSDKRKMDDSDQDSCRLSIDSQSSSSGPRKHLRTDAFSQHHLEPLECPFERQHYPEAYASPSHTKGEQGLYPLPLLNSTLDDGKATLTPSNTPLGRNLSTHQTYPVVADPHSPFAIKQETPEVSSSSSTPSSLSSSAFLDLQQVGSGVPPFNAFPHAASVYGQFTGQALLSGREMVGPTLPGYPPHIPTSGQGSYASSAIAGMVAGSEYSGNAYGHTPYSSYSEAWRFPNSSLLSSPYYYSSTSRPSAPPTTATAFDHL
Chain of Endoplasmic reticulum aminopeptidase 1 (Q9NZ08 whole entry): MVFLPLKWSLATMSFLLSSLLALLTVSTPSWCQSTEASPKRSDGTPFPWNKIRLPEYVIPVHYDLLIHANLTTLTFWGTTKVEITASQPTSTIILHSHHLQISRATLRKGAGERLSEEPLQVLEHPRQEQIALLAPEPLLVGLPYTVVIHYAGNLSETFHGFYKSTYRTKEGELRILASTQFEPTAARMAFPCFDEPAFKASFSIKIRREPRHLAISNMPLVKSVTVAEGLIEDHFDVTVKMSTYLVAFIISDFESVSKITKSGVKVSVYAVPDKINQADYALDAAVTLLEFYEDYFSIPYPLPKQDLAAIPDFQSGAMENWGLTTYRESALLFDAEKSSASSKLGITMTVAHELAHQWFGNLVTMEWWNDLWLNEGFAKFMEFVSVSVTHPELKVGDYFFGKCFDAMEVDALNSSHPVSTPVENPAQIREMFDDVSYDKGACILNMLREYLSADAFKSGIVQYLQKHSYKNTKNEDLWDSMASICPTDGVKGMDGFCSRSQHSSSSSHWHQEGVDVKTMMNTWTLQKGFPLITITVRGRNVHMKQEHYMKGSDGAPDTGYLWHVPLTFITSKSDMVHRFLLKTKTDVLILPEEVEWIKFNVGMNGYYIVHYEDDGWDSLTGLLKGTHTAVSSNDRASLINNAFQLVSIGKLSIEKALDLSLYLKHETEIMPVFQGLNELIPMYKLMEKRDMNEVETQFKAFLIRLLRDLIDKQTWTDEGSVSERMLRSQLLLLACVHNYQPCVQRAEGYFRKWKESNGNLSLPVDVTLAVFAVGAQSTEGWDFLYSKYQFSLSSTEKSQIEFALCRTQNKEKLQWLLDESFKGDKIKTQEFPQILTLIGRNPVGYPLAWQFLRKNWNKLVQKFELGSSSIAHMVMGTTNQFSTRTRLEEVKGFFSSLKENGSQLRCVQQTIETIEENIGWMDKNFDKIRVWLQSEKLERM
Chain of 1-phosphatidylinositol 4,5-bisphosphate phosphodiesterase gamma-1 (P19174 whole entry): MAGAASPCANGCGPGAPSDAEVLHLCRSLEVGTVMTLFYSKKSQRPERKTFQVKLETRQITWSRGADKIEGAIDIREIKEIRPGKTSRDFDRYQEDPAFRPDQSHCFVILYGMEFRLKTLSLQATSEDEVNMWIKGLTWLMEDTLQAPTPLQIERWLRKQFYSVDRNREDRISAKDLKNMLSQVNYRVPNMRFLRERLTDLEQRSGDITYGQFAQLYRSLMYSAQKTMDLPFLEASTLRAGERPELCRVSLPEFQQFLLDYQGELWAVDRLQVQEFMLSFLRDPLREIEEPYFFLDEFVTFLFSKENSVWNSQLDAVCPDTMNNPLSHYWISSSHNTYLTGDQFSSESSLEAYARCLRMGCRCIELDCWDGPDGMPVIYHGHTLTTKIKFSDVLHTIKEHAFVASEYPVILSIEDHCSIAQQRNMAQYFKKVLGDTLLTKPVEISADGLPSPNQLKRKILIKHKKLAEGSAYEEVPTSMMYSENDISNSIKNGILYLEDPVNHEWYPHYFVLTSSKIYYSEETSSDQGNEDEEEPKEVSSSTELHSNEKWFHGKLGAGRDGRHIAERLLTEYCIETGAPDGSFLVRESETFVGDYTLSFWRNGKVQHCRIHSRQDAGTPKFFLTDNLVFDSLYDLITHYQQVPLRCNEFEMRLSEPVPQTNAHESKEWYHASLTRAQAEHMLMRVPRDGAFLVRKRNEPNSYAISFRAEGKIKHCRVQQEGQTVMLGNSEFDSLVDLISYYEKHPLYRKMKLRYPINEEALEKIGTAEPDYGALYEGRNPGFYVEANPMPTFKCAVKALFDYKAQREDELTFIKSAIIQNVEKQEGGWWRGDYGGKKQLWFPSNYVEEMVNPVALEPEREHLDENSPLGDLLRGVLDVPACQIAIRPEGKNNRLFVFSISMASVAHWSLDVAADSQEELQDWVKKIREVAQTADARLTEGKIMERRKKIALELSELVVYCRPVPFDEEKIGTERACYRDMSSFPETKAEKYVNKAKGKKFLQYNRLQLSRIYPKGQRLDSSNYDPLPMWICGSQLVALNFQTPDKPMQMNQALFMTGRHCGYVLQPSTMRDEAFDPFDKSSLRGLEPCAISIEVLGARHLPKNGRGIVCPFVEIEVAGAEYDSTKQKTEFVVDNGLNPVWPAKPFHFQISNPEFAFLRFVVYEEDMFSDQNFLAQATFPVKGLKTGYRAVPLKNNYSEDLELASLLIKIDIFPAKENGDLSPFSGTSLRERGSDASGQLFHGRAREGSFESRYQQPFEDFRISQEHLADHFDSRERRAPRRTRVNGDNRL
Chain of 1-phosphatidylinositol 4,5-bisphosphate phosphodiesterase beta-3 (Q01970 whole entry): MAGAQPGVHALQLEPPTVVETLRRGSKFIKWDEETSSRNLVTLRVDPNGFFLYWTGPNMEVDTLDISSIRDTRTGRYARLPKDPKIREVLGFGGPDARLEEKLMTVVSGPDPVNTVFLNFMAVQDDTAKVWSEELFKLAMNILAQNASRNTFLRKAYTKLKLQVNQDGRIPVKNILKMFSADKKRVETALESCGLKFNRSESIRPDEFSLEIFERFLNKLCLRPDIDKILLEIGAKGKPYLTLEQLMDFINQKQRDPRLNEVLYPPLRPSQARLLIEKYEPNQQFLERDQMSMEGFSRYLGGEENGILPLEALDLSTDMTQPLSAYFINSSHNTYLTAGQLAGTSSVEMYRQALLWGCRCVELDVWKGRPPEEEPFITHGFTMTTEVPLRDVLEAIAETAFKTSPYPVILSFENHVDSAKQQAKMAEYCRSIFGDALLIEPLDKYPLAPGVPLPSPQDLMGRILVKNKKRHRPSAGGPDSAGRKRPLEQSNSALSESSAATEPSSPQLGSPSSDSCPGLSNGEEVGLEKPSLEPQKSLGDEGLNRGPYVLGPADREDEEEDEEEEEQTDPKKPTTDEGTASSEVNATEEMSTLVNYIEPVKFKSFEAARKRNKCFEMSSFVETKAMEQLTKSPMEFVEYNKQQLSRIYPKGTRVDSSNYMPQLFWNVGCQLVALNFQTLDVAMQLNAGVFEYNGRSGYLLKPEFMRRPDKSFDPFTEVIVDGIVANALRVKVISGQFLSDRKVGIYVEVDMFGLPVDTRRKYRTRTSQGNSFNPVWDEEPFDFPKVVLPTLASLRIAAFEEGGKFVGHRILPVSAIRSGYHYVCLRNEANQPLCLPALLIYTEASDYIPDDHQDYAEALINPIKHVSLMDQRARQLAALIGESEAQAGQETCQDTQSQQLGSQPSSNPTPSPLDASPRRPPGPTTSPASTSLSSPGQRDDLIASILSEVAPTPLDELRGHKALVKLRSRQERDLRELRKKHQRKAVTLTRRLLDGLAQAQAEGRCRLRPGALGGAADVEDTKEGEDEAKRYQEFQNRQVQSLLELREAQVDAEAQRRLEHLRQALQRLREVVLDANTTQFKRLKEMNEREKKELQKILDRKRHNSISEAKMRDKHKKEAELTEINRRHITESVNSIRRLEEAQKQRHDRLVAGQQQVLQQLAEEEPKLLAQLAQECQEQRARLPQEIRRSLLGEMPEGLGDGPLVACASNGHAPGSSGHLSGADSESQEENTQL
Chain of COUP transcription factor 2 (P24468 whole entry): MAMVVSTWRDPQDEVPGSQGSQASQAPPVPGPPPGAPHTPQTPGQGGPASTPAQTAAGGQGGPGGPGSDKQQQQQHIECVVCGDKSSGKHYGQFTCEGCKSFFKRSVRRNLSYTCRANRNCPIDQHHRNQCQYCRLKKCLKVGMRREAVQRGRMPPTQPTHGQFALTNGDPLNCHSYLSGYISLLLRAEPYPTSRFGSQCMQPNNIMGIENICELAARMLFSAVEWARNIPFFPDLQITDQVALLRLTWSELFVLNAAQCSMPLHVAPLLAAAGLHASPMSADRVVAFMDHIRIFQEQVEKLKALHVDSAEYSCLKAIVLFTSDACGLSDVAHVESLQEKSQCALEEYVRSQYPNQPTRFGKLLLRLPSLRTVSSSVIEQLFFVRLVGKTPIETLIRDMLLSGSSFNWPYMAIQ

Structure (SMILES): Cc1ccc(S(=O)(=O)Nc2ccc3c(c2)C(=O)N([C@H](C)CO)C[C@H](C)[C@@H](CN(C)S(=O)(=O)c2ccc(F)cc2)OCCCC[C@H](C)O3)cc1
- AC50 (Paired box protein Pax-8): 2.11 µM (active)
- AC50 [1]: 6.87 µM (active)
- AC50 [2]: 7.45 µM (active)
- AC50 [3]: 9 µM (active)
- AC50 [4]: 14.8 µM (active)
- AC50 [5]: 11 µM (active)

Structure (SMILES): CCn1c(=S)sc2c(=O)n(CC(=O)Nc3cccc(Cl)c3)c(C)nc21
- IC50 [6]: > 122 µM (inactive)
- IC50 [7]: > 122 µM (inactive)

Structure (SMILES): CC(C)N1C[C@H](C)[C@@H](CN(C)Cc2ccccc2)Oc2c(NC(=O)c3ccncc3)cccc2C1=O
- AC50 [8]: 0.00035 µM (active)
- AC50 [9]: 0.00035 µM (active)
- IC50 [10]: 0.0026 µM (active)

Structure (SMILES): N#C[C@H]1[C@@H](c2ccc(C#Cc3ccc(F)cc3)cc2)[C@H](CO)N1C(=O)C1CCCC1
- AC50 (Paired box protein Pax-8): 13.4 µM (active)
- AC50 [11]: 9.19 µM (active)
- AC50 [12]: 33.3 µM (active)
- AC50 [3]: 34.5 µM (active)
- AC50 [13]: 8.42 µM (active)
- AC50 [14]: > 70 µM (inactive)
- AC50 [15]: 26.2 µM (active)
- AC50 [16]: 26.5 µM (active)
- AC50 [5]: > 70 µM (inactive)
- AC50 [17]: 18.6 µM (active)

Structure (SMILES): O=C(CN1CCSC1=NCc1ccccc1)c1ccc(Cl)c(Cl)c1
- IC50 [18]: 83.2 µM (inactive)

Structure (SMILES): O=C(O)c1cccc(COc2ccc3cc(Br)c(=O)oc3c2)c1
- IC50 [19]: > 100 µM (inactive)
- IC50 [20]: > 100 µM (inactive)

Structure (SMILES): Nc1ccc2[nH]c(-c3ccccn3)nc2c1
- EC50 [21]: 24.6 µM (active)
- IC50 [22]: 16.7 µM (active)

Structure (SMILES): O=C(CSc1nc2ccccc2c(=O)[nH]1)NC1CCCCC1
- CC50 [23]: > 100 µM (inconclusive)
- CC50 [24]: > 100 µM (inconclusive)
- AC50 [25]: > 160 µM (inactive)

Structure (SMILES): CN(CC1CCCO1)S(=O)(=O)c1ccc(C(=O)Nc2nc3cc4c(cc3s2)OCO4)cc1 (centres undefined)
- EC50 [26]: 9.25 µM (active)
- EC50 [27]: 6.11 µM (active)
- IC50 [28]: > 80 µM (inactive)
- IC50 [29]: 2.68 µM (active)

Structure (SMILES): O=C1C=C(Nc2cccc(Cl)c2)C(=O)c2ccccc21
- AC50 [30]: 0.683 µM (active)
- AC50 [31]: 22.3 µM (active)
- AC50 [32]: 23.9 µM (active)

Structure (SMILES): Cc1cc(N(C)Cc2ccccc2)nc2cc(O)ccc12
- AC50 [33]: 11.3 µM (active)

Structure (SMILES): O=C(COC(=O)CCCSc1nc2ccccc2[nH]1)Nc1ccc(Oc2ccccc2)cc1
- IC50 [34]: 7.16 µM (not active)
- IC50 [35]: 8.39 µM (active)
- IC50 [36]: > 69.5 µM (inactive)

Structure (SMILES): CSC(=S)N/N=C/c1c[nH]c2ccccc12
- EC50 [37]: > 29.9 µM (inactive)
- IC50 [38]: 2.6 µM (active)
- IC50 [39]: 28.1 µM (inactive)
- EC50 [40]: > 29.9 µM (inactive)

Structure (SMILES): CCOC(=O)N1CCC(NC(=O)c2ccc3c(c2)sc2nc(-c4ccccc4)cn23)CC1
- AC50 [41]: 1.26 µM (active)
- AC50 [42]: 13.6 µM (active)
- AC50 [43]: 12.3 µM (active)

Structure (SMILES): Cc1cc(-c2ccccc2)c2ccc(NC(=O)C(C)(C)C)nc2n1
- EC50 [44]: > 195 µM (not active)
- AC50 (cells): > 52 µM (inactive)

From ChEMBL document CHEMBL1201862, “PubChem BioAssay data set” (2004)
